{"source": "patent US8685976B2", "about": "“Cell adhesion promoting agent and method of promoting cell adhesion” (Kyoto University, priority 2008, dated 2014)", "key": {"[1]": {"test_system": "CHO 677 cells", "test": "Cell adhesion assay, CHO 677", "format": "cell-based", "settings": "CHO 677, 6 μM, vs parental CHO-K1", "experimental": "(§1) (A) and (B) show CHO-K1 (wild-type) cells incubated with 1% (v/v) DMSO (A) or 6 μM adhesamine (B). (C) and (D) show CHO 677 incubated with 1% (v/v) DMSO (A) or 6 μM adhesamine (B). […] Cells were seeded onto adhesamine-added or fibronectin-coated plastic wells. The concentrations of adhesamine and fibronectin were 6 μM and 5 μg/mL, respectively. Adhered cells were counted at 5 hours after seeding. Each point represents average±SD.\n(§2) For CHO wild-type and CHO mutant cell lines, 100 μL of trypsinized cell suspension in a culture medium was added to each well at a density of 2×10^5 cells/mL. After 5-hour incubation at 37° C., non-adhered cells were removed by washing each well with PBS twice, and the attached cells were counted with a Neubauer counting chamber (Digital Bio). To calculate adhesion rates, the cell numbers before washing were assigned a value of 100%. Each assay was conducted in triplicate, and the means and standard derivations were calculated for a minimum of three independent experiments."}, "[2]": {"test_system": "Jurkat cells", "test": "Cell growth assay (WST-8), Jurkat", "format": "cell-based, human", "experimental": "In (A) and (B), the cell growth was determined at 24, 48, and 72 hours after the addition of adhesamine (1) (6 μM). The cell growth in the presence of 1% (v/v) DMSO was assigned a value of 100%. The data shown are means±SD for a minimum of three experiments. (C) to (F) show the rearrangement of actin filaments in HepG2 and Jurkat cells in the presence of adhesamine (6 μM). Brightfield images (C and D) and confocal images (E and F) are shown. HepG2 (C and E) or Jurkat (D and F) cells were plated for 5 hours or 3 hours, respectively, and actin cytoskeletal was visualized using rhodamine-labeled phalloidin.\n1 μL DMSO solution of adhesamine (1) was added to 96-well plate at a concentration of 600 μM. […] After incubation for indicated time, the cell viability was measured using Cell Counting Kit-8 (Dojindo Molecular Technologies, Inc., Gaithersburg, Md.), which contains a tetrazolium salt (WST-8) that produces a water-soluble formazan dye by NADH dehydrogenases in living cells. […] The optical density (OD) of the solution was read by a microplate reader, using a test wavelength at 450 nm and a reference wavelength at 650 nm. […] Each assay was conducted in triplicate, and the means and standard derivations were calculated for a minimum of three independent experiments."}, "[3]": {"test_system": "Jurkat cells", "test": "Cell detachment assay", "format": "cell-based, human", "settings": "24 hour after washing (removal of adhesamine)", "experimental": "FIG. 2 is a graph illustrating a reversible activity of adhesamine (1). The attached cells were counted at the indicated time points after removal of adhesamine (1). In order to calculate adhesion rates, the number of cells before washing was assigned a value of 100%. Each assay was conducted in triplicate, and the means and the standard deviations were calculated for a minimum of three independent experiments.\n1 μL DMSO solution of adhesamine (1) (6 mM) was dispensed to each well on a 96-well plate. Jurkat cells were suspended in the growth medium, and 100 μL of cell suspension was added to each well at a density of 1×10^6 cells/mL. After 5-hour incubation at 37° C., the medium was aspirated, and the plates were washed twice with PBS. 100 μL of fresh medium was added to each well. After further 4, 8, 14 and 24-hour incubation at 37° C., non-adhered cells were removed by washing with PBS twice, and the attached cells were counted with a Neubauer counting chamber. To calculate adhesion rates, the cell numbers before washing were assigned a value of 100%. Each assay was conducted in triplicate, and the means and standard derivations were calculated for a minimum of three independent experiments."}, "[4]": {"test_system": "CHO 745 cells", "test": "Cell adhesion assay, CHO 745", "format": "cell-based", "settings": "CHO 745, 6 μM, vs parental CHO-K1", "experimental": "as §1, §2"}, "[5]": {"test_system": "extracellular signal-regulated kinase (ERK)", "test": "Western blotting, ERK activation", "format": "cell-based, human", "settings": "Jurkat, 6 μM", "experimental": "(§3) Jurkat cells were treated with adhesamine (6 μM) in a serum-poor culture medium (0.1% FBS) for the indicated periods of time. The treated cell lysates were Western blotted with antibodies against FAK phospho-tyrosine^397 (pFAK), FAK, ERK1/2 phospho-threonine^202/tyrosine^204 (pERK) or ERK. In (B), Jurkat cells were incubated for 5 hours with varied concentrations of adhesamine or poly-L-lysine. The cell lysates were Western blotted with antibodies against FAK phospho-tyrosine^397 or FAK. […] The concentration of adhesamine (1) was 6 μM.\nJurkat cells were maintained in an RPMI medium containing 10% FBS. 5-6 million Jurkat cells were dispensed to a well of a 6-well plate in a final volume of 2 mL, and then incubated at 37° C. for 0-5 hours in the presence of adhesamine or poly-L-lysine. Non-adherent cells were removed and pelleted, and the remaining adherent cells were lysed in a 125 mM Tris-HCl buffer (pH 6.8) containing 4% SDS, 10% glycerol, 0.006% bromophenol blue, and 1.8% β-mercaptoethanol. The adherent cell homogenate was combined with pelleted nonadherent cells from the same well, and the combined sample was boiled for 5 minutes. The samples were separated by SDS-PAGE and electroblotted onto a nitrocellulose membrane. The membranes were blocked in 1% BSA and incubated with primary antibody, and then with horseradish peroxidase-conjugated secondary antibody. […]"}, "[6]": {"test_system": "Jurkat cells", "test": "Microinjection of Alexa Fluor 594", "format": "cell-based, human", "settings": "5 μg/mL reagent", "experimental": "The concentration of the reagents used was 5 μg/mL.\nThe solutions of adhesamine (1), Type I collagen, poly-L-lysine hydrochloride, and fibronectin were prepared by diluting with PBS containing 1% (v/v) DMSO. 10 μL of each solution (1 mg/mL) was added to glass bottom culture dishes (35 mm uncoated dish). 2 mL of cell suspension in a culture medium was added to each well at a density of 2×10^5 cells/mL. After 14-hour incubation at 37° C., Alexa Fluor 594 (Molecular Probes, USA) at a concentration of 5 mg/mL was injected into Jurkat cells by using a CI-2000 automated cell injection system (Fujitsu, Japan). Success rates of the microinjection were evaluated by direct observation of the fluorescent cells through a fluorescent-microscopic window of the injection system. The data shown are means±SD for a minimum of three experiments. 20 cells were injected in each experiment."}, "[7]": {"test_system": "focal adhesion kinase (FAK)", "test": "Western blotting, FAK activation", "format": "cell-based, human", "settings": "Jurkat", "experimental": "as §3\nJurkat cells were maintained in an RPMI medium containing 10% FBS. 5-6 million Jurkat cells were dispensed to a well of a 6-well plate in a final volume of 2 mL, and then incubated at 37° C. for 0-5 hours in the presence of adhesamine or poly-L-lysine. Non-adherent cells were removed and pelleted, and the remaining adherent cells were lysed in a 125 mM Tris-HCl buffer (pH 6.8) containing 4% SDS, 10% glycerol, 0.006% bromophenol blue, and 1.8% β-mercaptoethanol. The adherent cell homogenate was combined with pelleted nonadherent cells from the same well, and the combined sample was boiled for 5 minutes. The samples were separated by SDS-PAGE and electroblotted onto a nitrocellulose membrane. The membranes were blocked in 1% BSA and incubated with primary antibody, and then with horseradish peroxidase-conjugated secondary antibody. The blots were developed using the enhanced chemiluminescence technique."}}, "data": [{"smiles": "CSc1nc(Cl)c(C=O)c(N2CC[N+]3(CC2)CC[N+]2(CCN(c4nc(SC)nc(Cl)c4C=O)CC2)CC3)n1", "note": "[adhesamine]", "values": [{"measurement": "response of cell adhesion to adhesamine", "setting": "[1]", "result": "less responsive"}, {"measurement": "cytotoxicity", "setting": "[2]; 6 μM", "result": "no obvious cytotoxicity"}, {"measurement": "growth of the cells", "setting": "[2]; 6 μM, 24, 48, 72 hours, vs 1% DMSO", "result": "slightly enhanced"}, {"measurement": "Jurkat cells released from the surface of a culture plate", "setting": "[3]", "result": 93, "unit": "%"}, {"measurement": "response of cell adhesion to adhesamine", "setting": "[4]", "result": "less responsive"}, {"measurement": "time after incubation at which ERK was phosphorylated", "setting": "[5]", "result": 5, "unit": "h"}, {"measurement": "effect on microinjection success", "setting": "[6]", "result": "more than type I collagen, poly-L-lysine hydrochloride, and fibronectin"}, {"measurement": "microinjection success rates", "setting": "[6]", "result": "≤ 80", "unit": "%"}, {"measurement": "time after stimulation at which FAK phosphorylation was demonstrated", "setting": "[7]; 6 μM, serum-poor medium", "result": 5, "unit": "h"}, {"measurement": "concentration sufficient to phosphorylate FAK", "setting": "[7]; 5 hours", "result": 5, "unit": "µg/mL"}]}]}
